For six compounds, inhibition and IC50 results are on record in ChEMBL document CHEMBL2406948, “Skeletal rearrangement of seven-membered iminosugars: synthesis of (-)-adenophorine, (-)-1-epi-adenophorine and derivatives and evaluation as glycosidase inhibitors” (Bioorg Med Chem, 2013).

SMILES strings stand for the structures.

In assay [1] the target is T1, Tissue alpha-L-fucosidase (Bos taurus) (UniProt Q2KIM0).
T1 sequence (whole entry): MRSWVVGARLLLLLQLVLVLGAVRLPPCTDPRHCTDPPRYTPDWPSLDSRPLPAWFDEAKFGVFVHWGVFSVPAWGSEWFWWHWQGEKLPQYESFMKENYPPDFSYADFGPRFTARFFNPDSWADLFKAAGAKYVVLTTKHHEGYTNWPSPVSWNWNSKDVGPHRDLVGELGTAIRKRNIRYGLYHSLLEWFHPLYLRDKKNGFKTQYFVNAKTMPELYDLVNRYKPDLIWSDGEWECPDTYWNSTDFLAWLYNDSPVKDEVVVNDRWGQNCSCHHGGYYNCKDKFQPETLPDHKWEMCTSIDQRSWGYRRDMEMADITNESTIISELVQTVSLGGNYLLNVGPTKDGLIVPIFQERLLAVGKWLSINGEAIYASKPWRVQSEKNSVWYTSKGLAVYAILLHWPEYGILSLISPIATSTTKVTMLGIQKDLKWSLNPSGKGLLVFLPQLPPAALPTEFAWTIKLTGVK
Briefly: Inhibition of bovine kidney alpha-L-fucosidase at 1000 uM.

For assay [2], the target named is T2, Glucosylceramidase (Bos taurus) (UniProt Q2KHZ8).
T2 sequence (whole entry): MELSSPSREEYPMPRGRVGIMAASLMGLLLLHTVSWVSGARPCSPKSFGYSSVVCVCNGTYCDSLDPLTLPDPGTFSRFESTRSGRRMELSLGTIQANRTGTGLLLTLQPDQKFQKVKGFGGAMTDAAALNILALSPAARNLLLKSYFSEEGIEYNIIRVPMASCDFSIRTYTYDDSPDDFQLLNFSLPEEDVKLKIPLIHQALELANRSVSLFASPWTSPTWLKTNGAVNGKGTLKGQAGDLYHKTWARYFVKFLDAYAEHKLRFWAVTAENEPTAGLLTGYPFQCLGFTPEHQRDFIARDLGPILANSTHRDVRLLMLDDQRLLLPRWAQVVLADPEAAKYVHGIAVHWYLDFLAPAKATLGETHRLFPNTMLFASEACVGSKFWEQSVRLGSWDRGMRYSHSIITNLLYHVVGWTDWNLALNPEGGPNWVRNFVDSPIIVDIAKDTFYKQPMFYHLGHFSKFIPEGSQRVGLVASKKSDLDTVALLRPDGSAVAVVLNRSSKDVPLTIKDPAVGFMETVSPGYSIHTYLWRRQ
The experiment in a line: Inhibition of bovine liver beta-glucosidase at 1000 uM.

For assay [3], the target named is T3, Beta-galactosidase (Bos taurus) (UniProt Q58D55).
T3 sequence (whole entry): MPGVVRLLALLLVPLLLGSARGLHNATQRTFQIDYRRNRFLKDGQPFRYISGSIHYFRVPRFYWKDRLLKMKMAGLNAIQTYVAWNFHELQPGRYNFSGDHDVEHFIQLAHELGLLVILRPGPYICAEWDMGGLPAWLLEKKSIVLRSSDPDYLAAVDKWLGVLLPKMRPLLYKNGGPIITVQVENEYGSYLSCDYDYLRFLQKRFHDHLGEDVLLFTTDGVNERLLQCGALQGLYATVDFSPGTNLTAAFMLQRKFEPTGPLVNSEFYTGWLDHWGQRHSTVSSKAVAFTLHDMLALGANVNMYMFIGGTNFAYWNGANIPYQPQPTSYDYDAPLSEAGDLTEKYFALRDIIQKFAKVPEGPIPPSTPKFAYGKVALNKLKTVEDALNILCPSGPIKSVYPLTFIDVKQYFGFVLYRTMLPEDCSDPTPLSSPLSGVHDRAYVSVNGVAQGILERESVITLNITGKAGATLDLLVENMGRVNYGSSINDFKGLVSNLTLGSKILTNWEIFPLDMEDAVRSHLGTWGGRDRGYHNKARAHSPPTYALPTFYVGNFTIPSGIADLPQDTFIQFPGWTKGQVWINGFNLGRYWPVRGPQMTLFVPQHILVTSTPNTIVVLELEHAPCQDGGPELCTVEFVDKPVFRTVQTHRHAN
The experiment in a line: Inhibition of bovine liver beta-galactosidase at 1000 uM.

The next assay concerns Escherichia coli. The experiment in a line: Inhibition of Escherichia coli beta-glucuronidase at 1000 uM.
Another assay relates to Penicillium decumbens. Briefly: Inhibition of Penicillium decumbens alpha-L-rhamnosidase at 1000 uM.
A short description of assay [4]: Inhibition of Penicillium decumbens alpha-L-rhamnosidase.
The next assay addresses T4, Beta-galactosidase (Bos taurus, UniProt Q58D55).
T4 sequence (Q58D55 whole entry): T3 sequence (whole entry)
Briefly: Inhibition of bovine liver beta-galactosidase.

The target in assay [5] is T5, Tissue alpha-L-fucosidase (Bos taurus, UniProt Q2KIM0).
T5 sequence (Q2KIM0 whole entry): T1 sequence (whole entry)
Briefly: Inhibition of bovine kidney alpha-L-fucosidase.

The nature of assay [6]: Inhibition of Escherichia coli beta-glucuronidase.

Turning to `CC[C@H]1NC[C@@H](O)[C@@H](O)[C@H](O)[C@H]1O`, the inhibition in assay [1] is 36.7%; in [2], 24.6%; in assay [3] it was 12.1%; in the assay with Escherichia coli it was 3.1%; with Penicillium decumbens, 5.3%.

`CC[C@@H]1NC[C@@H](O)[C@@H](O)[C@H](O)[C@H]1O`: the inhibition in assay [1] was found to be 37.2%; with Escherichia coli, 18.1%. Also, the values for the IC50 (in [4]; on Beta-galactosidase) were 231 µM and 526 µM, respectively.

On to `CC[C@@H]1N[C@@H](CO)[C@@H](O)[C@H](O)[C@H]1O`, for which the inhibition worked out at 12.6% in [2], 6.5% in [3], 7.2% in the assay with Escherichia coli and 37.7% with Penicillium decumbens. This compound showed an IC50 in [5] of 72 µM.

Regarding `CC[C@H]1N[C@@H](CO)[C@@H](O)[C@H](O)[C@H]1O`, the inhibition in [2] was 32.8%; in assay [3] it was 20.3%; in the assay on Escherichia coli, 11%; with Penicillium decumbens it was 2.4%. Moreover, the IC50 in assay [5] stood at 208 µM.

As to `CCC[C@@H]1N[C@@H](CO)[C@@H](O)[C@H](O)[C@H]1O`, the inhibition was found to be 13.2% in assay [2], 26.8% in assay [3] and 13% in the assay on Penicillium decumbens. Further, the figures for the IC50 in assay [5] and in assay [6] were 713 µM and 586 µM, respectively.

Take `CC[C@@H]1N[C@H](CC)[C@H](O)[C@@H](O)[C@@H]1O`: the inhibition in [1] was determined as 0%; in [2], 21.6%; in assay [3] it was 9.7%; in the assay on Escherichia coli, 12.9%; in the assay on Penicillium decumbens, 0%.

Broadly, the inhibition is the drop in the measured response relative to a control, in per cent. Higher therefore signals a strong effect. In general, IC50 refers to the concentration at which inhibition is half-maximal. High values mean weaker potency, low ones greater potency.
